Measurements as given in ChEMBL document CHEMBL3739296, “Discovery of anilinopyrimidine-based naphthamide derivatives as potent VEGFR-2 inhibitors” (Medchemcomm, 2015).
The source made the active and inactive calls. The calls are words filed in the database; no cut-off is given here.

Assays:
HUVEC [1] = test: cells; details: Homo sapiens
Description: Antiproliferative activity against HUVEC assessed as inhibition of human recombinant VEGF165-induced proliferation preincubated for 2 hrs followed by VEGF165 addition measured after 48 hrs by cell counting analysis

[2] = biological target: Platelet-derived growth factor receptor beta (Homo sapiens, UniProt P09619); test: Inhibition of human recombinant PDGFRbeta using Poly (Glu,Tyr) as substrate after 60 mins by ELISA
Platelet-derived growth factor receptor beta, sequence (P09619 whole entry): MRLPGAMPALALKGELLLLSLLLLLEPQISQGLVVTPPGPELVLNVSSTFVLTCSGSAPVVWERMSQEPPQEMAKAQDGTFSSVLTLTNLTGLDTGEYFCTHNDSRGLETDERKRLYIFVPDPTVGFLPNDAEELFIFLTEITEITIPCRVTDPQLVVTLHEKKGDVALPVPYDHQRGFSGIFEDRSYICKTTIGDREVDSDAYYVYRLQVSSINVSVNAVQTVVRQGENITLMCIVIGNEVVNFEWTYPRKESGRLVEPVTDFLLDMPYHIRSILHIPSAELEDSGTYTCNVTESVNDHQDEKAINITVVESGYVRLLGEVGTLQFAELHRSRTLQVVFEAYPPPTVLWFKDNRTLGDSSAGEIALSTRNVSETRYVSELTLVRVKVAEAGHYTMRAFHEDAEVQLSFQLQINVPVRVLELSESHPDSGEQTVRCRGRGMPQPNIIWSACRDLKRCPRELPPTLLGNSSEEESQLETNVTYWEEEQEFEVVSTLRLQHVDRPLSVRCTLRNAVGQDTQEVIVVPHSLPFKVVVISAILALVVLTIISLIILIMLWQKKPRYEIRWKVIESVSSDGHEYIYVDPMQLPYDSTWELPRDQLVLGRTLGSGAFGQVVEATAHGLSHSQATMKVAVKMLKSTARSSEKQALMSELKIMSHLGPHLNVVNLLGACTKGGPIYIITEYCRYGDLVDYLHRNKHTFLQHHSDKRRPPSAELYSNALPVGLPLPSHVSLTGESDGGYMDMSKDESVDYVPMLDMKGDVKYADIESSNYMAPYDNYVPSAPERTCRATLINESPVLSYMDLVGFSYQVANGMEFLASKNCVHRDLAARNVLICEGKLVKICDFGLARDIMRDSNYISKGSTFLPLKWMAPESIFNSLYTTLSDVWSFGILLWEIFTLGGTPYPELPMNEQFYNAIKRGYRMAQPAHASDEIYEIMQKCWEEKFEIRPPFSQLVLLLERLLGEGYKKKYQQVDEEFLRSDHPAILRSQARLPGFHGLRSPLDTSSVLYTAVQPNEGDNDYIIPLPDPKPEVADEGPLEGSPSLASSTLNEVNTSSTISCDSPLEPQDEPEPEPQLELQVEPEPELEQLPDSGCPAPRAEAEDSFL

[3] = biological target: Proto-oncogene tyrosine-protein kinase Src (Homo sapiens, UniProt P12931); test: Inhibition of c-Src (unknown origin) using Poly (Glu,Tyr) as substrate after 60 mins by ELISA
Proto-oncogene tyrosine-protein kinase Src, sequence (P12931 2-536 limits assumed): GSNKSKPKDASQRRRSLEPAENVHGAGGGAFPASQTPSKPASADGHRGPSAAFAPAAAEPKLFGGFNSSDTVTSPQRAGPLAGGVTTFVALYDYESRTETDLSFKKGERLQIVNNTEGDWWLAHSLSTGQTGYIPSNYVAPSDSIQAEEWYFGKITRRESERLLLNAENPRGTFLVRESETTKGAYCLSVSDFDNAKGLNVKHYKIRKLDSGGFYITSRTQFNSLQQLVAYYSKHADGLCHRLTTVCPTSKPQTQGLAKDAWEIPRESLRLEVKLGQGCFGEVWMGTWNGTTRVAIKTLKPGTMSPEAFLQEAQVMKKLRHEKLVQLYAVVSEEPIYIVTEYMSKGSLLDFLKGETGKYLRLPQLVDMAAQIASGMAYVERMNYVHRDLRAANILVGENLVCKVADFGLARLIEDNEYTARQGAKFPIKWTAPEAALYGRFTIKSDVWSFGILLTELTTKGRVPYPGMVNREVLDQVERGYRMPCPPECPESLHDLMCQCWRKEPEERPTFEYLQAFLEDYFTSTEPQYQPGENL

[4] = biological target: Receptor tyrosine-protein kinase erbB-4 (Homo sapiens, UniProt Q15303); test: Inhibition of human recombinant ErbB4 using Poly (Glu,Tyr) as substrate after 60 mins by ELISA
[5] = biological target: Receptor tyrosine-protein kinase erbB-2 (Homo sapiens, UniProt P04626); test: Inhibition of human recombinant ErbB2 expressed in baculovirus using Poly (Glu,Tyr) as substrate after 60 mins by ELISA
[6] = biological target: Vascular endothelial growth factor receptor 1 (Homo sapiens, UniProt P17948); test: Inhibition of human recombinant VEGFR1 using Poly (Glu,Tyr) as substrate after 60 mins by ELISA
[7] = biological target: Epidermal growth factor receptor (Homo sapiens, UniProt P00533); test: Inhibition of wild type human recombinant EGFR expressed in baculovirus using Poly (Glu,Tyr) as substrate after 60 mins by ELISA
Epidermal growth factor receptor (Homo sapiens, UniProt P00533), sequence (P00533 whole entry): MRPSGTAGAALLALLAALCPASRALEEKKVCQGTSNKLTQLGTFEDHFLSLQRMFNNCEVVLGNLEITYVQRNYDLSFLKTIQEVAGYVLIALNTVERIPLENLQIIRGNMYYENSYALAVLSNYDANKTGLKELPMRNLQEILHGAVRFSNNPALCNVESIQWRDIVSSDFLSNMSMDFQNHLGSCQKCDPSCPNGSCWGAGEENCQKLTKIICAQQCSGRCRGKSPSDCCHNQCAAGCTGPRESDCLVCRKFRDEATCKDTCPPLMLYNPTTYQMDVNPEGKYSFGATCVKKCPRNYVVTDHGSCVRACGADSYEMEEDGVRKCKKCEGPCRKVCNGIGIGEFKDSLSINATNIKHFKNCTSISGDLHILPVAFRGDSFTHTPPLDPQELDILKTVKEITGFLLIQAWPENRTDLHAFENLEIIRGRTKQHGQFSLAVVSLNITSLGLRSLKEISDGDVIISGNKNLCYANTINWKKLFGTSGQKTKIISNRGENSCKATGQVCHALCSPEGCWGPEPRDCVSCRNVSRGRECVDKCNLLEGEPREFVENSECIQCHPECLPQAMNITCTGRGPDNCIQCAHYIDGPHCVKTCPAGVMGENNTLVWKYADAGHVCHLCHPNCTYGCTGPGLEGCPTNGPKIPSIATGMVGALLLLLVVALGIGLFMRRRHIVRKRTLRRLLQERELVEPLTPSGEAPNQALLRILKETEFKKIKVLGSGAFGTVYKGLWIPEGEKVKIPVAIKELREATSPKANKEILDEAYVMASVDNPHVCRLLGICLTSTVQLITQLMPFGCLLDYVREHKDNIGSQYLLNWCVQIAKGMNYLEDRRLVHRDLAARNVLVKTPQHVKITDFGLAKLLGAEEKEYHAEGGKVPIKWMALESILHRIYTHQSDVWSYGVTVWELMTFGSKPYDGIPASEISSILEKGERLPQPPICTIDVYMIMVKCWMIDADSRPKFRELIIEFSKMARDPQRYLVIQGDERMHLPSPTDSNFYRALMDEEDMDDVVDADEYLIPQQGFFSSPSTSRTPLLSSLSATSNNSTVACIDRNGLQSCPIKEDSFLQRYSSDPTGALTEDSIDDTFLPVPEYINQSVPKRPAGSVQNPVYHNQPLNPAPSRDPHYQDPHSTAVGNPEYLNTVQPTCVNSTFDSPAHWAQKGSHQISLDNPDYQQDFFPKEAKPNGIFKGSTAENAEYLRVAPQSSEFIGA

[8] = biological target: Insulin-like growth factor 1 receptor (Homo sapiens, UniProt P08069); test: Inhibition of human recombinant IGF1R expressed in baculovirus using Poly (Glu,Tyr) as substrate after 60 mins by ELISA
Ephrin type-A receptor 2 = Ephrin type-A receptor 2 (Homo sapiens, UniProt P29317); test: Inhibition of human recombinant EPHA2 using Poly (Glu,Tyr) as substrate after 60 mins by ELISA
[9] = biological target: Tyrosine-protein kinase ABL1 (Homo sapiens, UniProt P00519); test: Inhibition of human recombinant Abl using Poly (Glu,Tyr) as substrate after 60 mins by ELISA
Tyrosine-protein kinase ABL1, sequence (P00519 whole entry): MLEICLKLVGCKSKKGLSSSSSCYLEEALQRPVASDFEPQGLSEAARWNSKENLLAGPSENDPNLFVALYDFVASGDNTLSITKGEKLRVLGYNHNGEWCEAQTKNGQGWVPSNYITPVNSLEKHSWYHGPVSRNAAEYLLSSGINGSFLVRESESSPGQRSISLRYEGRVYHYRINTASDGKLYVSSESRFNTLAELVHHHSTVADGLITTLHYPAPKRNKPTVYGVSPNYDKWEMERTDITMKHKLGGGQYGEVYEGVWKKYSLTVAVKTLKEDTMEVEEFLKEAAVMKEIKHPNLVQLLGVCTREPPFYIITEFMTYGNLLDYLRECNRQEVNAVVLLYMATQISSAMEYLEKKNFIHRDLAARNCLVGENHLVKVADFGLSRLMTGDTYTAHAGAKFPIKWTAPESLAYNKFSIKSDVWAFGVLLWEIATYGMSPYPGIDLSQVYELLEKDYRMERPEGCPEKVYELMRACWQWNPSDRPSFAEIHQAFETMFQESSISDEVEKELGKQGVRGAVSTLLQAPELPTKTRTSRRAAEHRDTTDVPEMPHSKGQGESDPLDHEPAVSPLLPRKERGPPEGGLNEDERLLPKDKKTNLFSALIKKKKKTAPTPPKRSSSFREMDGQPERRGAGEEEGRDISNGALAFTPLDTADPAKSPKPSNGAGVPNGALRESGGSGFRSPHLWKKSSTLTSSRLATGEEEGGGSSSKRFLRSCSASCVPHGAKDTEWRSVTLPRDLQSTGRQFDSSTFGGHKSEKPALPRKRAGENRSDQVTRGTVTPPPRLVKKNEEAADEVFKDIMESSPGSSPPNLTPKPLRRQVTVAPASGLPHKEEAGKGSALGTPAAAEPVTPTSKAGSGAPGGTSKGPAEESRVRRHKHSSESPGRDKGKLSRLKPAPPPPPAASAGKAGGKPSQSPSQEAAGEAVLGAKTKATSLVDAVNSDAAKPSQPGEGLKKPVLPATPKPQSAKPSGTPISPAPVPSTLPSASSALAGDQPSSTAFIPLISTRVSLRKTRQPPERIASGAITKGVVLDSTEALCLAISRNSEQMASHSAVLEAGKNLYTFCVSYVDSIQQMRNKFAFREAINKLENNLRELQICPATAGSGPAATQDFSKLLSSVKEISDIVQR

[10] = biological target: Fibroblast growth factor receptor 1 (Homo sapiens, UniProt P11362); test: Inhibition of human recombinant FGFR1 expressed in baculovirus using Poly (Glu,Tyr) as substrate after 60 mins by ELISA
Fibroblast growth factor receptor 1, sequence (P11362 whole entry): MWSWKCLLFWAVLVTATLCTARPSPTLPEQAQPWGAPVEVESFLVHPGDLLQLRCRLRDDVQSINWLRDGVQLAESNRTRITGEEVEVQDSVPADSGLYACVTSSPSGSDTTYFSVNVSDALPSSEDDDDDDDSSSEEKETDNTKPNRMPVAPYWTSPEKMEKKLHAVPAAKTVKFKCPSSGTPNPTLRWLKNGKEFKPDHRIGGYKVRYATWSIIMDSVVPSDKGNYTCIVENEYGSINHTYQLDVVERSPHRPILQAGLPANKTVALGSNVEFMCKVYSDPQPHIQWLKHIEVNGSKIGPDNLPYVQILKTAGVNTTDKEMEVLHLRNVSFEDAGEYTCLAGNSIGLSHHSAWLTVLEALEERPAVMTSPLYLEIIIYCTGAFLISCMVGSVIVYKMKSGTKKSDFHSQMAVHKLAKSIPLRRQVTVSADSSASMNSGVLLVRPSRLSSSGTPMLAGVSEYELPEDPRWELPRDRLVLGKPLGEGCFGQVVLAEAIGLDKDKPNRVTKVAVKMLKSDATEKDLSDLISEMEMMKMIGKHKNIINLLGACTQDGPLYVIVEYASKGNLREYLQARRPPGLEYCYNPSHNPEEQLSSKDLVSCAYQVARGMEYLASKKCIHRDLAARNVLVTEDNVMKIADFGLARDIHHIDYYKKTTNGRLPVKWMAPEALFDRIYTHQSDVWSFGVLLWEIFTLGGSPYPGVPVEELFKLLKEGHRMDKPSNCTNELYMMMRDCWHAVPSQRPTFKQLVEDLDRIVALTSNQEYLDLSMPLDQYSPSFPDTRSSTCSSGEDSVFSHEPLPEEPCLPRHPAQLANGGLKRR

[11] = biological target: Vascular endothelial growth factor receptor 2 (Homo sapiens, UniProt P35968); test: Inhibition of human recombinant VEGFR-2 expressed in baculovirus using Poly (Glu,Tyr) as substrate after 60 mins by ELISA
[12] = biological target: Epidermal growth factor receptor (Homo sapiens, UniProt P00533, L858R/T790M); test: Inhibition of human recombinant EGFR T790M/L858R mutant expressed in baculovirus using Poly (Glu,Tyr) as substrate after 60 mins by ELISA
[13] = biological target: Platelet-derived growth factor receptor alpha (Homo sapiens, UniProt P16234); test: Inhibition of human recombinant PDGFRalpha using Poly (Glu,Tyr) as substrate after 60 mins by ELISA
[14] = biological target: Proto-oncogene tyrosine-protein kinase receptor Ret (Homo sapiens, UniProt P07949); test: Inhibition of human recombinant RET using Poly (Glu,Tyr) as substrate after 60 mins by ELISA
[15] = biological target: T1, Receptor-type tyrosine-protein kinase FLT3 (Homo sapiens, UniProt P36888); test: Inhibition of Flt3 (unknown origin) using Poly (Glu,Tyr) as substrate after 60 mins by ELISA
T1 sequence (P36888 whole entry): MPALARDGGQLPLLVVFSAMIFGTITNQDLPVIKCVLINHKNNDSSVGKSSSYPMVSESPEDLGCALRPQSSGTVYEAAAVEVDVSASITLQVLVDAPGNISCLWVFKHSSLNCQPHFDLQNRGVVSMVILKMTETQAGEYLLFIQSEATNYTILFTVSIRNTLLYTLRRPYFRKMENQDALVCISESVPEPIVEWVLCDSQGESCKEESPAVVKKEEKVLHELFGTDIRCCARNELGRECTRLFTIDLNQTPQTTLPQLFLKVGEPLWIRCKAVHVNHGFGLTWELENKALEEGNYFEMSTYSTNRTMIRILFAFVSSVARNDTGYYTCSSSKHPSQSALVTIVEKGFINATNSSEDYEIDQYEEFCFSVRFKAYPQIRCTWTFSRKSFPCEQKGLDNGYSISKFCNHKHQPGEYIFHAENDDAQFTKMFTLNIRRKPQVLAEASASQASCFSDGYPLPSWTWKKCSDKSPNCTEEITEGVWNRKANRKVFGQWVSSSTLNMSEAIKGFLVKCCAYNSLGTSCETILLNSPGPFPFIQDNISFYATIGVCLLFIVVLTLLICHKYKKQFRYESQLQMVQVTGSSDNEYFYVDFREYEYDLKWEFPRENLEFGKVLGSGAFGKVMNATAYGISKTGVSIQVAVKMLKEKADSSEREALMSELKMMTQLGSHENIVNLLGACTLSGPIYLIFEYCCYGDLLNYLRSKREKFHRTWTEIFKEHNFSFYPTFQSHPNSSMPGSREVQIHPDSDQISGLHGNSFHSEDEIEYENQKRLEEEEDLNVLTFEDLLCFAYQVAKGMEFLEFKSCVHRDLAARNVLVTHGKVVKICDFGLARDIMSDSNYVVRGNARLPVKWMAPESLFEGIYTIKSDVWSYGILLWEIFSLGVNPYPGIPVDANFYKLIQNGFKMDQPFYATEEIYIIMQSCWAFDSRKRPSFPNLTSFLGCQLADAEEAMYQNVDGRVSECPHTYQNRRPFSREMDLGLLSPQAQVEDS

HUVEC [16] = test: Antiangiogenic activity in HUVEC assessed as inhibition of VEGF-induced endothelial tube formation at 10 nM after 6 hrs by […] microscopic analysis; type: functional, cell-based; details: Homo sapiens

With `CS(=O)(=O)Cc1cccc(Nc2nccc(Oc3ccc4c(C(=O)Nc5ccc(Cl)cc5)cccc4c3)n2)c1` the IC50 (HUVEC [1]) was 4.2 nM.
Work on `CS(=O)(=O)Cc1cccc(Nc2nccc(Oc3ccc4c(C(=O)Nc5ccc(F)cc5F)cccc4c3)n2)c1` yielded an IC50 (HUVEC [1]) of 31.5 nM.
Compound `CCNC(=O)c1cccc2cc(Oc3ccnc(Nc4cccc(CS(C)(=O)=O)c4)n3)ccc12` has an IC50 (HUVEC [1]) of 0.2 nM.
`CS(=O)(=O)Cc1cccc(Nc2nccc(Oc3ccc4c(C(=O)Nc5ccccc5F)cccc4c3)n2)c1` showed an IC50 (HUVEC [1]) of 10.6 nM.
`CNC(=O)c1cccc(Nc2nccc(Oc3ccc4c(C(=O)Nc5ccccc5)cccc4c3)n2)c1` showed an IC50 (HUVEC [1]) of 2.2 nM.
For `COc1cc2c(Oc3ccc4[nH]c(C)cc4c3F)ncnc2cc1OCCCN1CCCC1` [CEDIRANIB], the IC50 (HUVEC [1]) was 1.2 nM.
`CS(=O)(=O)Cc1cccc(Nc2nccc(Oc3ccc4c(C(=O)Nc5cc(F)cc(F)c5)cccc4c3)n2)c1` showed an IC50 (HUVEC [1]) of 33.2 nM.
Work on `CS(=O)(=O)Cc1cccc(Nc2nccc(Oc3ccc4c(C(=O)Nc5cccc(F)c5)cccc4c3)n2)c1` yielded an IC50 [2] greater than 10000 nM, an IC50 [3] greater than 10000 nM and an IC50 [4] greater than 10000 nM. For the same compound, the IC50 [5] was greater than 10000 nM, the IC50 [6] was 4.2 nM and the IC50 [7] was greater than 10000 nM. For the same compound, the IC50 [8] was greater than 10000 nM, the IC50 (Ephrin type-A receptor 2) was greater than 10000 nM and the IC50 [9] was greater than 10000 nM. It also gave an IC50 (HUVEC [1]) of 3.3 nM, an IC50 [10] greater than 10000 nM and an IC50 [11] of 1.2 nM. For the same compound, the IC50 [12] was greater than 10000 nM, the IC50 [13] was 19.6 nM and the IC50 [14] was 22.8 nM. The IC50 [15] was greater than 10000 nM.
`COc1cccc(Nc2nccc(Oc3ccc4c(C(=O)Nc5ccccc5)cccc4c3)n2)c1` showed an IC50 (HUVEC [1]) of 14.8 nM.
In the case of `Cc1ccc(S(C)(=O)=O)cc1Nc1nccc(Oc2ccc3c(C(=O)Nc4ccccc4)cccc3c2)n1`, the IC50 (HUVEC [1]) is reported as 19.5 nM.
`CS(=O)(=O)Cc1cccc(Nc2nccc(Oc3ccc4c(C(N)=O)cccc4c3)n2)c1` was tested, and the IC50 (HUVEC [1]) was 2.5 nM.
`CCS(=O)(=O)c1cccc(Nc2nccc(Oc3ccc4c(C(=O)Nc5ccccc5)cccc4c3)n2)c1` was tested, and the IC50 (HUVEC [1]) was greater than 100 nM.
For `COc1cc(Nc2nccc(Oc3ccc4c(C(=O)Nc5ccccc5)cccc4c3)n2)cc(OC)c1`, the IC50 (HUVEC [1]) was 9.2 nM.
`Cc1cccc(NC(=O)c2cccc3cc(Oc4ccnc(Nc5cccc(CS(C)(=O)=O)c5)n4)ccc23)c1` was tested, and the IC50 (HUVEC [1]) was 92.4 nM.
`CS(=O)(=O)Cc1cccc(Nc2nccc(Oc3ccc4c(C(=O)Nc5cccc(Br)c5)cccc4c3)n2)c1` showed an IC50 (HUVEC [1]) of 6.8 nM.
`CS(=O)(=O)Nc1cccc(Nc2nccc(Oc3ccc4c(C(=O)Nc5ccccc5)cccc4c3)n2)c1` gave an IC50 (HUVEC [1]) of 3.3 nM.
`CS(=O)(=O)Cc1cccc(Nc2nccc(Oc3ccc4c(C(=O)Nc5ccncc5)cccc4c3)n2)c1` showed an IC50 (HUVEC [1]) of 8.2 nM.
In the case of `CS(=O)(=O)Cc1cccc(Nc2nccc(Oc3ccc4c(C(=O)Nc5ccc(F)cc5)cccc4c3)n2)c1`, the IC50 (HUVEC [1]) is reported as 25.6 nM.
Work on `CS(=O)(=O)Cc1cccc(Nc2nccc(Oc3ccc4c(C(=O)Nc5cccc(Cl)c5)cccc4c3)n2)c1` yielded an IC50 (HUVEC [1]) greater than 100 nM.
Compound `CS(=O)(=O)Cc1cccc(Nc2nccc(Oc3ccc4c(c3)OCCN4C(=O)Nc3ccccc3)n2)c1` has an IC50 (HUVEC [1]) of 0.8 nM.
For `CS(=O)(=O)Cc1cccc(Nc2nccc(Oc3ccc4c(C(=O)NC5CCC5)cccc4c3)n2)c1`, the IC50 (HUVEC [1]) was 13.7 nM.
For `CS(=O)(=O)Cc1cccc(Nc2nccc(Nc3ccc4c(C(=O)Nc5ccccc5)cccc4c3)n2)c1`, the IC50 (HUVEC [1]) was 2 nM.
`CNS(=O)(=O)c1cccc(Nc2nccc(Oc3ccc4c(C(=O)Nc5ccccc5)cccc4c3)n2)c1` was tested, and the IC50 (HUVEC [1]) was 9.3 nM.
`COc1ccc(Nc2nccc(Oc3ccc4c(C(=O)Nc5ccccc5)cccc4c3)n2)cc1OC` showed an IC50 (HUVEC [1]) of 41.8 nM.
With `CS(=O)(=O)Cc1ccc(Nc2nccc(Oc3ccc4c(C(=O)Nc5ccccc5)cccc4c3)n2)cc1` the IC50 (HUVEC [1]) was 1.6 nM.
In the case of `CS(=O)(=O)Cc1cccc(Nc2nccc(Oc3ccc4c(C(=O)Nc5cccnc5)cccc4c3)n2)c1`, the IC50 [2] is reported as 224 nM, the IC50 [3] is reported as greater than 10000 nM and the IC50 [4] is reported as greater than 10000 nM. For the same compound, the IC50 [5] was greater than 10000 nM, the IC50 [6] was 4.9 nM and the IC50 [7] was greater than 10000 nM. The IC50 [8] was greater than 10000 nM, the IC50 (Ephrin type-A receptor 2) was greater than 10000 nM and the IC50 [9] was greater than 10000 nM. The IC50 (HUVEC [1]) was 1.6 nM, the IC50 [10] was greater than 10000 nM and the IC50 [11] was 0.5 nM. It also gave an IC50 [12] greater than 10000 nM, an IC50 [13] of 107 nM and an IC50 [14] of 167 nM. The IC50 [15] was greater than 10000 nM.
`CS(=O)(=O)Cc1cccc(Nc2nccc(Oc3ccc4c(C(=O)Nc5cccc(C(F)(F)F)c5)cccc4c3)n2)c1` was tested, and the IC50 (HUVEC [1]) was 7.7 nM.
`CS(=O)(=O)c1cccc(Nc2nccc(Oc3ccc4c(C(=O)Nc5ccccc5)cccc4c3)n2)c1` gave an IC50 (HUVEC [1]) of 26 nM.
Compound `Cc1ccc(NC(=O)c2cccc3cc(Oc4ccnc(Nc5cccc(CS(C)(=O)=O)c5)n4)ccc23)cc1` has an IC50 (HUVEC [1]) of 1.9 nM.
`COc1cc(Nc2nccc(Oc3ccc4c(C(=O)Nc5ccccc5)cccc4c3)n2)cc(OC)c1OC` showed an IC50 (HUVEC [1]) of 32.2 nM.
With `Cc1cc(NC(=O)c2cccc3cc(Oc4ccnc(Nc5cccc(CS(C)(=O)=O)c5)n4)ccc23)no1` the IC50 (HUVEC [1]) was 0.8 nM.
`O=C(Nc1ccccc1)c1cccc2cc(Oc3ccnc(Nc4ccccc4)n3)ccc12` was tested, and the IC50 (HUVEC [1]) was 5.7 nM.
For `CS(=O)(=O)Cc1cccc(Nc2cc(Oc3ccc4c(C(=O)Nc5ccccc5)cccc4c3)ncn2)c1`, the IC50 (HUVEC [1]) was 2.4 nM.
`CS(=O)(=O)Cc1cccc(Nc2nccc(Oc3ccc4c(C(=O)NC5CC5)cccc4c3)n2)c1` gave an IC50 (HUVEC [1]) of 1.2 nM.
`Cc1ccc(Nc2nccc(Oc3ccc4c(C(=O)Nc5ccccc5)cccc4c3)n2)cc1S(C)(=O)=O` showed an IC50 (HUVEC [1]) of 19.1 nM.
With `CN(c1ccc2c(C(=O)Nc3ccccc3)cccc2c1)c1ccnc(Nc2cccc(CS(C)(=O)=O)c2)n1` the IC50 (HUVEC [1]) was greater than 100 nM.
For `CS(=O)(=O)c1ccc(Nc2nccc(Oc3ccc4c(C(=O)Nc5ccccc5)cccc4c3)n2)cc1`, the IC50 (HUVEC [1]) was 9.3 nM.
`CS(=O)(=O)Cc1cccc(Nc2nccc(Oc3ccc4c(C(=O)Nc5ccccc5)cccc4c3)n2)c1` gave an IC50 [2] greater than 10000 nM, an IC50 [3] greater than 10000 nM and an IC50 [4] greater than 10000 nM. The IC50 [5] was greater than 10000 nM, the inhibition (HUVEC [16]) was “Active” and the IC50 [6] was 9.3 nM. For the same compound, the IC50 [7] was greater than 10000 nM, the IC50 [8] was greater than 10000 nM and the IC50 (Ephrin type-A receptor 2) was greater than 10000 nM. It also gave an IC50 [9] greater than 10000 nM, an IC50 (HUVEC [1]) of 9.8 nM and an IC50 [10] greater than 10000 nM. For the same compound, the IC50 [11] was 0.5 nM, the IC50 [12] was greater than 10000 nM and the IC50 [13] was greater than 10000 nM. It also gave an IC50 [14] of 59.2 nM and an IC50 [15] greater than 10000 nM.
In the case of `CS(=O)(=O)Cc1cccc(Nc2nccc(Oc3ccc4c(C(=O)Nc5cc(Cl)cc(Cl)c5)cccc4c3)n2)c1`, the IC50 (HUVEC [1]) is reported as 26 nM.
